Experiment: Solution stability of N-protected and C-protected amino acid
Format: physicochemical
Conditions: N-protected and C-protected amino acid (Fmoc-Leu condensed with the listed compound) in tetrahydrofuran and acetic acid, room temperature, three days; amount remaining (survival rate)
Procedure: The obtained N-protected and C-protected amino acid (10 mg) and 2,6-di-tert-butyl-4-methylphenol (internal standard: 8 mg) were dissolved in a tetrahydrofuran solution (20 mL) and acetic acid (2 mL), respectively, and after allowing time to pass at room temperature for three days, the amount of remaining N-protected and C-protected amino acid was determined and evaluated based on the following standard.
Regarding the evaluation of the solution stability, a case of “B” or higher was regarded as acceptable.
It can be said that, as the solution stability is higher, peptide stability is high, side reactions can be suppressed, and yield is excellent.
—Evaluation Standard— • “A”: survival rate was 99% or more. • “B”: survival rate was 97% or more and less than 99%. • “C”: survival rate was 95% or more and less than 97%. • “D”: survival rate was less than 95%.

Row | Compound | Solution stability
1 | CCCCCCCCCCCCCCCCCCCCCCOc1ccc(C(O)c2ccc(OCCCCCCCCCCCCCCCCCCCCCC)cc2)cc1 [Comparative compound (1-1)] | C (survival rate was 95% or more and less than 97%)
2 | CCCCCCCCCCCCCCCCCCCCCCOc1cc(COc2ccc3cc(C(O)c4ccc(OC)cc4)ccc3c2)cc(OCCCCCCCCCCCCCCCCCCCCCC)c1 (centres unmarked) [Compound (1-2)] | A (survival rate was 99% or more)
